Test results from ChEMBL document CHEMBL3797178, “Synthesis, antimycobacterial and antibacterial activity of 1-(6-amino-3,5-difluoropyridin-2-yl)fluoroquinolone derivatives containing an oxime functional moiety” (2016).
Converted amounts (≈) assume the structure as drawn.

Legend:
Format in all cases: functional
Pseudomonas aeruginosa [1] = assay: Antibacterial activity against Pseudomonas aeruginosa 14-9 after 18 to 24 hrs by CLSI M100-S11 method
Enterococcus faecium [2] = assay: Antibacterial activity against Enterococcus faecium 14-1 after 18 to 24 hrs by CLSI M100-S11 method
Klebsiella pneumoniae [3] = assay: Antibacterial activity against extended-spectrum beta-lactamase-producing Klebsiella pneumoniae 14-19 after 18 to 24 hrs by CLSI M100-S11 method
Escherichia coli [4] = assay: Antibacterial activity against extended-spectrum beta-lactamase-producing Escherichia coli 14-2 after 18 to 24 hrs by CLSI M100-S11 method
Staphylococcus aureus [5] = assay: Antibacterial activity against methicillin-resistant Staphylococcus aureus 14-5 after 18 to 24 hrs by CLSI M100-S11 method
Streptococcus pneumoniae = assay: Antibacterial activity against Streptococcus pneumoniae ATCC 19615 after 18 to 24 hrs by CLSI M100-S11 method
Klebsiella pneumoniae [6] = assay: Antibacterial activity against extended-spectrum beta-lactamase-producing Klebsiella pneumoniae 14-17 after 18 to 24 hrs by CLSI M100-S11 method
Pseudomonas aeruginosa [7] = assay: Antibacterial activity against Pseudomonas aeruginosa 14-15 after 18 to 24 hrs by CLSI M100-S11 method
Staphylococcus aureus [8] = assay: Antibacterial activity against methicillin-resistant Staphylococcus aureus 14-4 after 18 to 24 hrs by CLSI M100-S11 method
[9] = tested on: Mycobacterium tuberculosis; assay: Antimycobacterial activity against Mycobacterium tuberculosis H37Rv ATCC 27294 after 3 days by microplate Alamar Blue assay; conditions: H37Rv ATCC 27294, 72 h
Klebsiella pneumoniae [10] = assay: Antibacterial activity against extended-spectrum beta-lactamase-producing Klebsiella pneumoniae 14-18 after 18 to 24 hrs by CLSI M100-S11 method
Klebsiella pneumoniae [11] = assay: Antibacterial activity against Klebsiella pneumoniae 14-2 after 18 to 24 hrs by CLSI M100-S11 method
Enterococcus faecium [12] = assay: Antibacterial activity against Enterococcus faecium 14-2 after 18 to 24 hrs by CLSI M100-S11 method
[13] = tested on: Staphylococcus epidermidis; assay: Antibacterial activity against methicillin-sensitive Staphylococcus epidermidis 14-2 after 18 to 24 hrs by CLSI M100-S11 method
Escherichia coli [14] = assay: Antibacterial activity against Escherichia coli ATCC 25922 after 18 to 24 hrs by CLSI M100-S11 method
[15] = tested on: Staphylococcus epidermidis; assay: Antibacterial activity against methicillin-resistant Staphylococcus epidermidis 14-37 after 18 to 24 hrs by CLSI M100-S11 method
Pseudomonas aeruginosa [16] = assay: Antibacterial activity against Pseudomonas aeruginosa 14-16 after 18 to 24 hrs by CLSI M100-S11 method
Pseudomonas aeruginosa [17] = assay: Antibacterial activity against Pseudomonas aeruginosa ATCC 27853 after 18 to 24 hrs by CLSI M100-S11 method
[18] = tested on: Staphylococcus epidermidis; assay: Antibacterial activity against methicillin-sensitive Staphylococcus epidermidis 14-4 after 18 to 24 hrs by CLSI M100-S11 method
[19] = tested on: Staphylococcus epidermidis; assay: Antibacterial activity against methicillin-resistant Staphylococcus epidermidis 14-39 after 18 to 24 hrs by CLSI M100-S11 method
Escherichia coli [20] = assay: Antibacterial activity against extended-spectrum beta-lactamase-producing Escherichia coli 14-1 after 18 to 24 hrs by CLSI M100-S11 method
Escherichia coli [21] = assay: Antibacterial activity against Escherichia coli 14-2 after 18 to 24 hrs by CLSI M100-S11 method
Pseudomonas aeruginosa [22] = assay: Antibacterial activity against Pseudomonas aeruginosa 14-14 after 18 to 24 hrs by CLSI M100-S11 method
[23] = tested on: Staphylococcus epidermidis; assay: Antibacterial activity against methicillin-sensitive Staphylococcus epidermidis 14-6 after 18 to 24 hrs by CLSI M100-S11 method
Klebsiella pneumoniae [24] = assay: Antibacterial activity against Klebsiella pneumoniae 14-4 after 18 to 24 hrs by CLSI M100-S11 method
Enterococcus faecalis [25] = assay: Antibacterial activity against Enterococcus faecalis 14-2 after 18 to 24 hrs by CLSI M100-S11 method
Pseudomonas aeruginosa [26] = assay: Antibacterial activity against Pseudomonas aeruginosa 14-19 after 18 to 24 hrs by CLSI M100-S11 method
Klebsiella pneumoniae [27] = assay: Antibacterial activity against Klebsiella pneumoniae 14-1 after 18 to 24 hrs by CLSI M100-S11 method
Klebsiella pneumoniae [28] = assay: Antibacterial activity against Klebsiella pneumoniae 14-3 after 18 to 24 hrs by CLSI M100-S11 method
Escherichia coli [29] = assay: Antibacterial activity against Escherichia coli 14-1 after 18 to 24 hrs by CLSI M100-S11 method
Staphylococcus aureus [30] = assay: Antibacterial activity against methicillin-sensitive Staphylococcus aureus 14-3 after 18 to 24 hrs by CLSI M100-S11 method
Enterococcus faecalis [31] = assay: Antibacterial activity against Enterococcus faecalis 14-1 after 18 to 24 hrs by CLSI M100-S11 method
Staphylococcus aureus [32] = assay: Antibacterial activity against methicillin-sensitive Staphylococcus aureus 14-2 after 18 to 24 hrs by CLSI M100-S11 method
[33] = tested on: Staphylococcus epidermidis; assay: Antibacterial activity against methicillin-resistant Staphylococcus epidermidis 14-22 after 18 to 24 hrs by CLSI M100-S11 method
Staphylococcus aureus [34] = assay: Antibacterial activity against methicillin-sensitive Staphylococcus aureus 14-4 after 18 to 24 hrs by CLSI M100-S11 method
Staphylococcus aureus [35] = assay: Antibacterial activity against Staphylococcus aureus CMCC 26003 after 18 to 24 hrs by CLSI M100-S11 method
Enterococcus faecalis [36] = assay: Antibacterial activity against Enterococcus faecalis 14-3 after 18 to 24 hrs by CLSI M100-S11 method

SMILES | MIC (Pseudomonas aeruginosa [1]) [µg/mL] | MIC (Enterococcus faecium [2]) [µg/mL] | MIC (Klebsiella pneumoniae [3]) [µg/mL] | MIC (Escherichia coli [4]) [µg/mL] | MIC (Staphylococcus aureus [5]) [µg/mL] | MIC (Streptococcus pneumoniae) [µg/mL] | MIC (Klebsiella pneumoniae [6]) [µg/mL] | MIC (Pseudomonas aeruginosa [7]) [µg/mL] | MIC (Staphylococcus aureus [8]) [µg/mL] | MIC [9] [µg/mL] | MIC (Klebsiella pneumoniae [10]) [µg/mL] | MIC (Klebsiella pneumoniae [11]) [µg/mL] | MIC (Enterococcus faecium [12]) [µg/mL] | MIC [13] [µg/mL] | MIC (Escherichia coli [14]) [µg/mL] | MIC [15] [µg/mL] | MIC (Pseudomonas aeruginosa [16]) [µg/mL] | MIC (Pseudomonas aeruginosa [17]) [µg/mL] | MIC [18] [µg/mL] | MIC [19] [µg/mL] | other results
CCO/N=C1\CN(c2nc3c(cc2F)c(=O)c(C(=O)O)cn3-c2nc(N)c(F)cc2F)CC1CN (stereo unspecified) | 16 (≈ 32.6 µM) | 128 (≈ 260 µM) | 128 (≈ 260 µM) | 128 (≈ 260 µM) | 64 (≈ 130 µM) | 16 (≈ 32.6 µM) | 64 (≈ 130 µM) | 16 (≈ 32.6 µM) | 64 (≈ 130 µM) | 6.56 (≈ 13.3 µM) | 32 (≈ 65.1 µM) | 128 (≈ 260 µM) | 8 (≈ 16.3 µM) | 64 (≈ 130 µM) | 0.5 (≈ 1.02 µM) | 64 (≈ 130 µM) | 16 (≈ 32.6 µM) | 4 (≈ 8.14 µM) | 32 (≈ 65.1 µM) | 32 (≈ 65.1 µM) | MIC (Escherichia coli [20]): 8 µg/mL (≈ 16.3 µM); MIC (Escherichia coli [21]): 64 µg/mL (≈ 130 µM); MIC (Pseudomonas aeruginosa [22]): 16 µg/mL (≈ 32.6 µM); MIC [23]: 32 µg/mL (≈ 65.1 µM); MIC (Klebsiella pneumoniae [24]): 128 µg/mL (≈ 260 µM); MIC (Enterococcus faecalis [25]): 16 µg/mL (≈ 32.6 µM); MIC (Pseudomonas aeruginosa [26]): 32 µg/mL (≈ 65.1 µM); MIC (Klebsiella pneumoniae [27]): 64 µg/mL (≈ 130 µM); MIC (Klebsiella pneumoniae [28]): 128 µg/mL (≈ 260 µM); MIC (Escherichia coli [29]): 64 µg/mL (≈ 130 µM); MIC (Staphylococcus aureus [30]): 0.5 µg/mL (≈ 1.02 µM); MIC (Enterococcus faecalis [31]): 16 µg/mL (≈ 32.6 µM); MIC (Staphylococcus aureus [32]): 0.25 µg/mL (≈ 0.509 µM); MIC [33]: 32 µg/mL (≈ 65.1 µM); MIC (Staphylococcus aureus [34]): 0.5 µg/mL (≈ 1.02 µM); MIC (Staphylococcus aureus [35]): 0.06 µg/mL (≈ 0.122 µM); MIC (Enterococcus faecalis [36]): 32 µg/mL (≈ 65.1 µM)
CO/N=C1\CN(c2nc3c(cc2F)c(=O)c(C(=O)O)cn3-c2nc(N)c(F)cc2F)[C@H]1CN | 32 (≈ 69.1 µM) | > 128 | > 128 | > 128 | > 128 | 64 (≈ 138 µM) | > 128 | 64 (≈ 138 µM) | > 128 | > 32 | 64 (≈ 138 µM) | > 128 | 128 (≈ 276 µM) | > 128 | 2 (≈ 4.32 µM) | > 128 | 32 (≈ 69.1 µM) | 16 (≈ 34.5 µM) | 64 (≈ 138 µM) | > 128 | MIC (Escherichia coli [20]): 64 µg/mL (≈ 138 µM); MIC (Escherichia coli [21]): > 128 µg/mL; MIC (Pseudomonas aeruginosa [22]): 64 µg/mL (≈ 138 µM); MIC [23]: 64 µg/mL (≈ 138 µM); MIC (Klebsiella pneumoniae [24]): > 128 µg/mL; MIC (Enterococcus faecalis [25]): > 128 µg/mL; MIC (Pseudomonas aeruginosa [26]): 32 µg/mL (≈ 69.1 µM); MIC (Klebsiella pneumoniae [27]): > 128 µg/mL; MIC (Klebsiella pneumoniae [28]): > 128 µg/mL; MIC (Escherichia coli [29]): > 128 µg/mL; MIC (Staphylococcus aureus [30]): 8 µg/mL (≈ 17.3 µM); MIC (Enterococcus faecalis [31]): > 128 µg/mL; MIC (Staphylococcus aureus [32]): 8 µg/mL (≈ 17.3 µM); MIC [33]: > 128 µg/mL; MIC (Staphylococcus aureus [34]): 4 µg/mL (≈ 8.63 µM); MIC (Staphylococcus aureus [35]): 4 µg/mL (≈ 8.63 µM); MIC (Enterococcus faecalis [36]): > 128 µg/mL
CCO/N=C1\CN(c2nc3c(cc2F)c(=O)c(C(=O)O)cn3-c2nc(N)c(F)cc2F)[C@@H]1CN | 128 (≈ 268 µM) | > 128 | > 128 | > 128 | > 128 | 64 (≈ 134 µM) | > 128 | 128 (≈ 268 µM) | > 128 | > 32 | > 128 | > 128 | 128 (≈ 268 µM) | > 128 | 16 (≈ 33.5 µM) | > 128 | 128 (≈ 268 µM) | 128 (≈ 268 µM) | > 128 | > 132 | MIC (Escherichia coli [20]): > 128 µg/mL; MIC (Escherichia coli [21]): > 128 µg/mL; MIC (Pseudomonas aeruginosa [22]): 128 µg/mL (≈ 268 µM); MIC [23]: > 128 µg/mL; MIC (Klebsiella pneumoniae [24]): > 128 µg/mL; MIC (Enterococcus faecalis [25]): > 128 µg/mL; MIC (Pseudomonas aeruginosa [26]): 128 µg/mL (≈ 268 µM); MIC (Klebsiella pneumoniae [27]): > 128 µg/mL; MIC (Klebsiella pneumoniae [28]): > 128 µg/mL; MIC (Escherichia coli [29]): > 128 µg/mL; MIC (Staphylococcus aureus [30]): 32 µg/mL (≈ 67 µM); MIC (Enterococcus faecalis [31]): > 128 µg/mL; MIC (Staphylococcus aureus [32]): 32 µg/mL (≈ 67 µM); MIC [33]: > 128 µg/mL; MIC (Staphylococcus aureus [34]): 32 µg/mL (≈ 67 µM); MIC (Staphylococcus aureus [35]): 16 µg/mL (≈ 33.5 µM); MIC (Enterococcus faecalis [36]): > 128 µg/mL
